# Experimental data published in patent publication US20250230138A1, “COMPOUNDS HAVING A T-STRUCTURE FORMED BY AT LEAST FOUR CYCLES FOR USE IN THE TREATMENT OF CANCER AND OTHER INDICATIONS” (TheRas, Inc., priority 2022, published 2025).
# Like-named read-outs stand apart in the source and are kept apart here.
# What was measured:
# [1] = molecular target: Cys242 in human PIK3CA (157-299) (Homo sapiens (Human), UniProt P42336); experiment: Covalent modification assay using MALDI-TOF MS; assay type: biochemical; details: 4 h reaction time point
# Description: Matrix-Assisted Laser Desorption Ionization-Time of Flight Mass Spectrometry (MALDI-TOF MS) analysis of covalent modification of Cys242 in human PIK3CA (157-299) was performed.
# Reaction: 3.33 μM or 1 μM of PIK3CA (157-299) protein (produced in-house by Protein Expression Laboratory, FNLCR/Leidos Biomed) in 20 mM HEPES buffer containing 150 mM NaCl, 2 mM MgCl2, pH 7.3 was prepared freshly before assay. Twelve-μL aliquots of protein were dispensed onto low volume 384-well plate, then 470 nL DMSO and 30 nL of tested compounds from 10 mM DMSO stocks were added to appropriate wells using ECHO 555 acoustic liquid handler (Labcyte Inc.). For each reaction/assay, three blanks were prepared by mixing 12 μL of protein solution with 500 nL DMSO. The wells content was carefully mixed by aspiration, and then the plate was sealed by an adhesive cover, centrifuged at 931 g for 1 minute, and kept in the dark at room temperature until 15 min, 30 min, 2 h, or 4 h collections.
# Targetpretreatment: Before each assay MALDI target (Bruker MPT 384 ground steel BC) was pre-treated by pipetting on each spot 0.75 μL of saturated sinapinic acid in acetonitrile (ACN).
# Sample preparation: At collection time point, 2 μL of reaction mixtures were pipetted out into […] MALDI matrix solution (saturated solution of sinapinic acid in 1:1 ACN:water solution containing 0.15% trifluoroacetic acid (TFA)) deposited on 384 well polypropylene plate. The resulting solution was mixed by aspiration, centrifuged at 931 g for 1 minute, then 1.5 μL aliquots were dispensed on pre-treated MALDI target using Beckman Coulter Biomek FX^P 96/384-Span-8 Laboratory Automation Workstation. Finally, the MALDI target was dried under a mild vacuum to produce spots with a fine crystalline structure.
# Measurements: MALDI-TOF measurements were performed on Bruker Daltonics rapifleX Tissuetyper TOF-TOF mass spectrometer using linear mode and mass ranging from 16.0 to 19.6 kDa. Detector gain was set to 0.64×(459 V), sample rate to 5 GS/s, real-time smoothing to medium (175 MHz), laser smart beam pattern was set to “Custom” single smartbeam beam scan with a scan range of 40 μm on both X and Y axis, and the laser frequency was 10000 Hz. Spectra were automatically collected using the custom AutoXecute method. Laser power was auto adjusted using fuzzy control. The peak selection range was set to be between 16.0 and 18.5 kDa. Peak evaluation uses a half-width parameter set to be smaller than 40 Da for processed spectrograms (centroid peak detection; smoothed by SavitzkyGolay algorithm using 7 m/z width and 2 cycles; baseline was subtracted using a median algorithm with flatness 1 and median level 0). Fuzzy control used Proteins/Oligonucleotides protocol with minimum half-width 1/10 times above threshold. Up to 40000 satisfactory shots were collected in 10000 short steps. Dynamic termination was implemented to finish data collection when the peak signal/noise ratio was reaching a value of 1000.
# Spectra processing: Spectra were smoothed by SavitzkyGolay algorithm using 7 m/z width and three cycles. Centroid peak detection algorithm was used with signal to noise threshold set to 6, relative intensity threshold 3%, peak width 10 m/z, and median baseline subtraction using flatness of 1 and the median level of 0.1. Peak intensity and area under the peak were evaluated and recorded for all peaks between 16.0 and 19.5 kDa.
# Calculation of percent modification: Percent modification was calculated as a ratio of peak height for protein modified by compound to the sum of the peak height of remaining protein plus peak height for protein modified by a compound. If multiple modifications were observed each was calculated as a ratio of peak height for given modification versus the sum of peak heights for all observed protein species.
# pAKT in BT474 cells = experiment: Cell-based pAKT HTRF assay in BT474 cells; details: BT474 cells, 4 hr incubation, read-out: pAKT inhibition IC50 in BT474 cells
# Description: On Day 1, cells were seeded into 96-well plates at 2.5×10^4 cells/well in complete growth media (DMEM, 10% FBS). On Day 2, cells were treated with compounds at 0.25% DMSO. The source plate was created with compounds diluted in media at 5-fold the final assay concentration. The compounds are run in a 9-point concentration curve starting at 3 μM, with a 3-fold dilution between concentrations. 20 μL was transferred onto the cell plates (final volume in wells was 100 μL). Plates were harvested after 4 hr incubation by aspirating media and adding kit-supplied 1× supplemented lysis buffer to all wells (75 μL per well). Plates were then placed on a plate shaker and incubated at 850 rpm for an additional 30 min. The antibody mixture solution was prepared by diluting aliquoted d2 and Eu Cryptate antibodies 1:20 in kit supplied detection buffer, then mixed the diluted antibodies solutions (1:1 v:v). 4 μL of this solution was then added to a 384-well detection plate (Perkin Elmer; 6008230). Samples were homogenized by pipetting up and down and then transferred (16 μL of cell lysates) from the 96-well cell culture plate to two wells of the HTRF 384-well detection plate containing the antibody solution. Plates were centrifuged (524 g for 1 min) and allowed to incubate between 4 and 24 h at room temperature. The maximum signal is reached after 4 h incubation time and remains stable over a period of 24 hours. Therefore, readings can be made between 4 and 24 h of incubation. Plates were centrifuged again (524 g for 1 m), and analyzed on the EnVision plate reader using the following settings: Excitation 320 nm, Bandwidth […]; Emission 615 nm, Bandwidth […], Gain 10000, Flashes 100, Lag 60 μs.
# [2] = 3.33 μM protein target, 1:7.5 protein to compound ratio (compounds 1-852)
# [3] = 1 μM protein target, 1:5 protein to compound ratio (compounds 853-1279)
# Cys242 in human PIK3CA (157-299), sequence (P42336 157-299): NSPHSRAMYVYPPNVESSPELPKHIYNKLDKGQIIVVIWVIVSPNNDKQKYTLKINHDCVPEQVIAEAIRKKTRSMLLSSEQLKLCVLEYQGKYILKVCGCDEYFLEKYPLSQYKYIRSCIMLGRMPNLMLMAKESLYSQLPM
SMILES,"% of modification [1, 2]",IC50 (pAKT in BT474 cells; Compounds 10-999),"% of modification [1, 3]",IC50 (pAKT in BT474 cells; Compounds 1000-1279),"IC50 (pAKT in BT474 cells; Homo sapiens, BT-474, Compounds 10-999)"
C=C(F)C(=O)N1CCn2nc(-c3nc(-c4ccc5c(c4)CNC5=O)c4ccsc4c3-c3c(F)cc(F)cc3OCC)cc2C1 [Compound 321],B (50%<percent of modification <75%),< 100 nM,–,–,–
C=CC(=O)N1Cc2cc(-c3nc(-c4ccc5c(cnn5C)c4)c4ccsc4c3-c3c(F)cc(F)cc3OCC(C)(C)O)nn2[C@@H](C)C1 [Compound 848],A (percent of modification of PIK3CA protein ≥75%),< 100 nM,–,–,–
C=CC(=O)N1CCn2nc(-c3nc(-c4ccc5c(cnn5CCN(C)C)c4)c4ccsc4c3-c3c(F)cc(F)cc3OCCOC)cc2C1C (centres unmarked) [Compound 1105],–,–,A (percent of modification of PIK3CA protein ≥75%),< 100 nM,–
C=CC(=O)N1CCc2ncc(-c3nc(-c4ccc5nncn5c4)c4ccsc4c3-c3c(F)cc(F)cc3OCCOC)cc2C1 [Compound 941],–,< 100 nM,A (percent of modification of PIK3CA protein ≥75%),–,–
C=CC(=O)N1CCn2nc(-c3nc(-c4ccc(OCCN5CCC5)cc4)c4ccsc4c3-c3c(F)cc(F)cc3OCCOC)cc2C1C (centres unmarked) [Compound 1073],–,–,A (percent of modification of PIK3CA protein ≥75%),< 100 nM,–
C=CC(=O)N1CCn2nc(-c3nc(-c4ccc5ncn(C)c5c4)c4ccsc4c3-c3c(F)cc(F)cc3OCCOC)cc2C1C (centres unmarked) [Compound 552],A (percent of modification of PIK3CA protein ≥75%),< 100 nM,–,–,–
C=CC(=O)N1CCn2nc(-c3nc(-c4ccc(N5CCN(C)CC5)nc4)c4ccsc4c3-c3c(F)cc(F)cc3OCCOC)cc2C1C (centres unmarked) [Compound 1048],–,–,A (percent of modification of PIK3CA protein ≥75%),< 100 nM,–
C=CC(=O)N1CCn2nc(-c3nc(-c4ccc5c(c4)CNC(=O)C5)c4ccsc4c3-c3c(F)cc(F)cc3OCCOC)cc2C1C (centres unmarked) [Compound 926],–,< 100 nM,A (percent of modification of PIK3CA protein ≥75%),–,–
C=CC(=O)N1CCn2nc(-c3nc(-c4ccc5c(c4)CCN(C)C5)c4ccsc4c3-c3c(F)cc(F)cc3OCCOC)cc2[C@H]1C [Compound 510],A (percent of modification of PIK3CA protein ≥75%),< 100 nM,–,–,–
"C=C(F)C(=O)N1CCn2nc(-c3nc(-c4ccc5c(c4)CCN(C)C5)c4ccsc4c3-c3c(F)cc(F)cc3OC(C)C)cc2C1 (single isomer, unassigned) [Compound 486]",A (percent of modification of PIK3CA protein ≥75%),< 100 nM,–,–,–
"C=CC(=O)N1CC(n2cc(-c3nc(-c4ccc5c(c4)CNC(=O)C5)c4ccsc4c3-c3cccnc3OC)cn2)C1 [Compound 84, 7-[7-(2-methoxy-3-pyridyl)-6-[1-(1-prop-2-enoylazetidin-3-yl)pyrazol-4-yl]thieno[3,2-c]pyridin-4-yl]-2,4-dihydro-1H-isoquinolin-3-one]",B (50%<percent of modification <75%),–,–,–,1000 to 3000 nM
C=CC(=O)N1CCn2nc(-c3nc(-c4ccc5c(c4)CN(C)CC5)c4c(c3-c3c(F)cc(F)cc3OCCOC)CCC4)cc2C1C (centres unmarked) [Compound 1244],–,–,A (percent of modification of PIK3CA protein ≥75%),< 100 nM,–
C=CC(=O)N1CCn2nc(-c3nc(-c4ccc5c(c4)CCN(C)C5)c4ccsc4c3-c3c(F)cc(F)cc3OC3CC3)cc2C1C (centres unmarked) [Compound 549],A (percent of modification of PIK3CA protein ≥75%),< 100 nM,–,–,–
C=CC(=O)N1CCn2nc(-c3nc(-c4ccc(CN5CC(F)(F)C5)nc4)c4ccsc4c3-c3c(F)cc(F)cc3OCCOC)cc2[C@H]1C [Compound 529],A (percent of modification of PIK3CA protein ≥75%),< 100 nM,–,–,–
"C=CC(=O)N1CCc2nc(-c3nc(-c4cnc5c(c4)CNC(=O)C5)c4ccsc4c3-c3c(F)cc(F)cc3OC(C)C)sc2C1 (single isomer, unassigned) [Compound 587]",D (percent of modification <25%),> 3000 nM,–,–,–
C=CC(=O)N1CCn2nc(-c3nc(-c4cc5cnn(C)c5cc4F)c4ccsc4c3-c3c(F)cc(F)cc3OCCO)cc2[C@H]1C [Compound 1162],–,–,A (percent of modification of PIK3CA protein ≥75%),< 100 nM,–
C=CC(=O)N1CC(n2cc(-c3nc(N4CCc5n[nH]c(=O)cc5C4)c4ccsc4c3-c3ccc(F)cc3OCCOC)cn2)C1 [Compound 158],A (percent of modification of PIK3CA protein ≥75%),100 to 1000 nM,–,–,–
"C=CC(=O)N1CCc2nc(-c3nc(-c4ccc5c(c4)CCN(C)C5)c4ccsc4c3-c3c(F)cc(F)cc3OCCOC)sc2C1 (single isomer, unassigned) [Compound 450]",A (percent of modification of PIK3CA protein ≥75%),< 100 nM,–,–,–
C=CC(=O)N1Cc2cc(-c3nc(-c4ccc5c(c4)C(=O)N(C)C5)c4ccsc4c3-c3c(F)cc(F)cc3OC)nn2[C@@H](C)C1 [Compound 905],–,100 to 1000 nM,C (25%≤percent of modification <50%),–,–
C=CC(=O)N1CCn2nc(-c3nc(-c4cccc(C(=O)N5CC(N(C)C)C5)c4)c4ccsc4c3-c3c(F)cc(F)cc3OCCOC)cc2C1C (centres unmarked) [Compound 1142],–,–,A (percent of modification of PIK3CA protein ≥75%),< 100 nM,–
C=CC(=O)N1CCc2nc(-c3nc(-c4ccc5c(c4)CCNC5)c4ccsc4c3-c3c(F)cc(Cl)cc3OCCOC)sc2C1 [Compound 465],A (percent of modification of PIK3CA protein ≥75%),100 to 1000 nM,–,–,–
C=CC(=O)N1CCn2nc(-c3nc(-c4ccc5ncn(C)c5c4)c4ccsc4c3-c3c(F)cc(F)cc3OC[C@@H](C)O)cc2[C@@H]1C [Compound 647],A (percent of modification of PIK3CA protein ≥75%),< 100 nM,–,–,–
